Assay results: patent US12084473B2, “β-D-2′-deoxy-2′-α-fluoro-2′-β-C-substituted-2-modified-N6-substituted purine nucleotides for HCV treatment” (Atea Pharmaceuticals, Inc., priority 2015, dated 2024)
Read-outs that look alike come from different tables or passages of the source.

Assays:
[1] = test system: HCV genotype 1b luciferase reporter replicon; assay: microbe, parasite or virus in culture; type: cell-based; conditions: for EC95: Huh-7 luc/neo ET cells, 72 hours, luciferase, read-out: HCV Replicon EC50/EC95: EC95; for EC50: read-out: EC50 in a replicon assay
Experimental: (§1) The plates were cultured for 24 hours prior to the addition of compounds. Six serial one half log dilutions of the test articles (high test concentration of 100.0 μM or high test concentration of 1.0 μM) and human interferon-alpha2b (high test 10.0 U/ml) were prepared in cell culture medium and added to the cultured cells in triplicate wells for each dilution. Six wells in the test plates received medium alone as an untreated control. Following 72 hours of culture in the presence of compound, one of the plates was used for the determination of cytotoxicity by staining with XTT and the other for antiviral efficacy by determination of luciferase reporter activity. Cytotoxicity and efficacy data were collected and imported into a customized Excel workbook for determination of the TC50 and EC50 values. […] The y-axis is the percent of virus control and the x-axis is the concentration of drug in μM. […] The y-axis is the percent of virus control and the x-axis is the concentration of drug in M.

[2] = Cytotoxicity by XTT staining in replicon cells; conditions: human
Experimental: as §1

[3] = test system: HCV genotype 1b luciferase reporter replicon; assay: microbe, parasite or virus in culture; type: cell-based; conditions: Hepatitis C virus, HuH-7-Luc/Neo-ET, 72 h, read-out: HCV Replicon EC50/EC95: EC50
[4] = test system: Huh-7 luc/neo ET cells; assay: Cytotoxicity by XTT staining in replicon cells
Experimental: as §1

[5] = test system: HCV Genotype 1a, NS5B Mutation L159F and S282T; assay: microbe, parasite or virus in culture; type: cell-based; conditions: genotype 1a, NS5B L159F and S282T
Experimental: (§2) Various patient-derived HCV genotypes containing wild-type and resistance-associated variants were used to determine their relative replication sensitivity to test compounds. Replicon resistance test vectors (RTVs) containing the NS5B genomic regions were prepared using viral RNA isolated from plasma of HCV patients. Each NS5B region was amplified by reverse-transcription polymerase chain reaction and cloned into an HCV replicon RTV which was then transferred by electroporation into Huh-7 cells.

[6] = test system: HCV Genotype 1a, NS5B Mutation L159F; assay: microbe, parasite or virus in culture; type: cell-based; conditions: genotype 1a, NS5B L159F
Experimental: as §2

[7] = test system: HCV Genotype 1a, NS5B Mutation none; assay: microbe, parasite or virus in culture; type: cell-based; conditions: genotype 1a, no NS5B mutation
Experimental: as §2

[8] = test system: HCV Genotype 1b, NS5B Mutation C316N; assay: microbe, parasite or virus in culture; type: cell-based; conditions: genotype 1b, NS5B C316N
Experimental: as §2

[9] = test system: HCV Genotype 1b, NS5B Mutation none; assay: microbe, parasite or virus in culture; type: cell-based; conditions: genotype 1b, no NS5B mutation
Experimental: as §2

[10] = test system: HCV Genotype 2a, NS5B Mutation none; assay: microbe, parasite or virus in culture; type: cell-based; conditions: genotype 2a, no NS5B mutation
Experimental: as §2

[11] = test system: HCV Genotype 2b, NS5B Mutation none; assay: microbe, parasite or virus in culture; type: cell-based; conditions: genotype 2b, no NS5B mutation
Experimental: as §2

[12] = test system: HCV Genotype 3a-1, NS5B Mutation none; assay: microbe, parasite or virus in culture; type: cell-based; conditions: genotype 3a-1, no NS5B mutation
Experimental: as §2

[13] = test system: HCV Genotype 3a-2, NS5B Mutation none; assay: microbe, parasite or virus in culture; type: cell-based; conditions: genotype 3a-2, no NS5B mutation
Experimental: as §2

[14] = test system: HCV Genotype 4a, NS5B Mutation none; assay: microbe, parasite or virus in culture; type: cell-based; conditions: genotype 4a, no NS5B mutation
Experimental: as §2

[15] = test system: HCV Genotype 4d, NS5B Mutation none; assay: microbe, parasite or virus in culture; type: cell-based; conditions: genotype 4d, no NS5B mutation
Experimental: as §2

[16] = test system: HCV S282T replicon; assay: microbe, parasite or virus in culture; type: cell-based; conditions: NS5B Mutation S282T, transient assay, 96-hr
Experimental: (§3) A transient transfection assay was performed to determine the sensitivity of the […] of HCV to test compounds. Huh-7 cells were electroporated in the presence of RNA transcribed from wild type or S282T HCV replicon plasmids from the T7 promoter. The transfected cells were seeded in to 96-well plates at 7.5×10^3 cells per well in Dulbecco's Modified Eagle's medium. After 24 hr of incubation, medium was removed and replaced with fresh medium containing no or various concentrations of test compounds. Following an additional 96-hr incubation, the anti-HCV activity was measured by luciferase endpoint with Britelite™ Plus luminescence reporter gene kit (Perkin Elmer, Shelton, CT). Duplicate plates were treated and incubated in parallel for assessment of cellular toxicity by staining with the tetrazolium dye XTT.

[17] = test system: HCV wild type replicon; assay: microbe, parasite or virus in culture; type: cell-based; conditions: NS5B Mutation None, transient assay, 96-hr
Experimental: as §3

[18] = test system: micro-patterned human hepatocyte co-cultures; assay: Human Hepatocyte Co-Cultures (HepatoPac): cytotoxicity and hepatocyte health; type: cell-based
Experimental: Cytotoxicity and hepatocyte health were assessed in triplicate by measuring ALT leakage, urea production, albumin secretion and cellular ATP contents in micro-patterned human hepatocyte co-cultures (HepatoPac®, Hepregen Corporation) prepared by seeding cryopreserved human hepatocytes (single donor) and 3T3 J2 mouse fibroblasts in microtiter plates according to procedures established by Hepregen. Culture media was replaced with fresh media containing TA, test article, (0, 1, 10 or 30 μM) every 2 or 3 days through day 16. […] Cellular ATP levels were measured on days 9 and 21. ATP signals in stromal-only control cultures (murine 3T3 fibroblasts) were subtracted from those of human HepatoPac co-cultures to obtain hepatocyte-specific effects. See, Table 4, 5 and 6 below.

[19] = Hepatitis C virus, parent nucleosides

CCN(C)c1nc(N)nc2c1ncn2[C@@H]1OC(COP(=O)(N[C@@H](C)C(=O)OC(C)C)Oc2ccccc2)[C@@H](O)[C@@]1(C)F (stereo partly drawn) [Compound 18, isopropyl ((((R,S)-(2R,3R,4R,5R)-5-(2-amino-6-(N-methyl-ethylamino)-9H-purin-9-yl)-4-fluoro-3-hydroxy-4-methyltetrahydrofuran-2-yl)methoxy)-phenoxy-phosphoryl)-L-alaninate]
EC95 ([1]; Hepatitis C virus): 219 nM | CC50 at 72 h [2]: 90000 nM | EC50 [3]: 48 nM

CC(C)OC(=O)[C@H](C)N[P@@](=O)(OCC1O[C@@H](n2cnc3c(N(C)C4CC4)nc(N)nc32)[C@](C)(F)[C@@H]1O)Oc1ccccc1 (stereo partly drawn) [Compound 28, isopropyl ((((R)-(2R,3R,4R,5R)-5-(2-amino-6-(methylcyclopropanamino)-9H-purin-9-yl)-4-fluoro-3-hydroxy-4-methyltetrahydrofuran-2-yl)methoxy)-phenoxy-phosphoryl)-L-alaninate]
EC95 ([1]; Hepatitis C virus): 76 nM | CC50 at 72 h [2]: > 100000 nM | EC50 [3]: 14 nM

CNc1nc(N)nc2c1ncn2[C@@H]1O[C@H](CO)[C@@H](O)[C@@]1(C)F [Compound 4, (2R,3R,4R,5R)-5-(2-amino-6-(methylamino)-9H-purin-9-yl)-4-fluoro-2-(hydroxymethyl)-4-methyltetrahydrofuran-3-ol]
EC50 [1, 19]: 15700 nM | CC50 at 72 h [2]: > 100000 nM | EC50 [3]: 15700 nM

CN(C)c1nc(N)nc2c1ncn2[C@@H]1O[C@H](CO)[C@@H](O)[C@@]1(C)F [Compound 6, (2R,3R,4R,5R)-5-(2-amino-6-(dimethylamino)-9H-purin-9-yl)-4-fluoro-2-(hydroxymethyl)-4-methyltetrahydrofuran-3-ol]
EC50 [1, 19]: 10700 nM | CC50 at 72 h [2]: > 100000 nM | EC50 [3]: 10700 nM

CC(C)OC(=O)[C@H](C)N[P@@](=O)(OCC1O[C@@H](n2cnc3c(N(C)C)nc(N)nc32)[C@](C)(F)[C@@H]1O)Oc1ccccc1 (stereo partly drawn) [Compound 26, isopropyl ((((R)-(2R,3R,4R,5R)-5-(2-amino-6-(dimethylamino)-9H-purin-9-yl)-4-fluoro-3-hydroxy-4-methyltetrahydrofuran-2-yl)methoxy)-phenoxy-phosphoryl)-L-alaninate]
EC95 ([1]; Hepatitis C virus): 57 nM | CC50 at 72 h [2]: > 100000 nM | EC50 [3]: 35.1 nM

CC(C)OC(=O)[C@H](C)N[P@@](=O)(OCC1O[C@@H](n2ccc(=O)[nH]c2=O)[C@](C)(F)[C@@H]1O)Oc1ccccc1 (some centres unmarked)
EC95 ([1]; Hepatitis C virus): 310 nM | CC50 at 72 h [2]: > 100000 nM | EC50 [3]: 52 nM

C#C[C@@]1(F)[C@H](O)[C@@H](CO)O[C@H]1n1cnc2c(NC)nc(N)nc21 [Compound 42]
EC95 ([1]; Hepatitis C virus): 20400 nM | CC50 at 72 h [2]: > 100000 nM | EC50 [3]: 4180 nM

sofosbuvir [reference compound]
EC50 [1]: 53 nM | TC50 [4]: greater than one hundred | IC95 Value [5]: 16950.9 nM | IC50 ([5]; read-out: IC50 Value): 1620 nM | IC95 Value [6]: 1067.5 nM | IC50 ([6]; read-out: IC50 Value): 115 nM | IC95 Value [7]: 507.7 nM | IC50 ([7]; read-out: IC50 Value): 62.7 nM | IC95 Value [8]: 472.8 nM | IC50 ([8]; read-out: IC50 Value): 73.9 nM | Fold Change in IC50 from Sofosbuvir [9]: 1.0 | IC95 Value [9]: 642.2 nM | IC50 ([9]; read-out: IC50 Value): 86 nM | IC95 Value [10]: 195.1 nM | IC50 ([10]; read-out: IC50 Value): 22.5 nM | IC95 Value [11]: 295.3 nM | IC50 ([11]; read-out: IC50 Value): 44.8 nM | IC95 Value [12]: 689.8 nM | IC50 ([12]; read-out: IC50 Value): 126 nM | IC95 Value [13]: 808.1 nM | IC50 ([13]; read-out: IC50 Value): 124 nM | IC95 Value [14]: 681.4 nM | IC50 ([14]; read-out: IC50 Value): 74.9 nM | IC95 Value [15]: 1019.7 nM | IC50 ([15]; read-out: IC50 Value): 93.7 nM | IC95 Value [16]: >1000 nM | IC50 ([16]; read-out: IC50 Value): 278 nM | IC95 Value [17]: 218 nM | IC50 ([17]; read-out: IC50 Value): 36.4 nM | IC50 ([18]; Day 9, read-out: Effect on Cellular ATP Concentrations, 50% Inhibitory Concentration (IC50)): 8600 nM | IC50 ([18]; Day 21, read-out: Effect on Cellular ATP Concentrations, 50% Inhibitory Concentration (IC50)): 2300 nM | IC50 ([18]; Table 5, Day 2, read-out: Effect on Albumin Secretion, 50% Inhibitory Concentration (IC50)): > 30000 nM | IC50 ([18]; Table 5, Day 5, read-out: Effect on Albumin Secretion, 50% Inhibitory Concentration (IC50)): 19500 nM | IC50 ([18]; Table 5, Day 7, read-out: Effect on Albumin Secretion, 50% Inhibitory Concentration (IC50)): 10900 nM | IC50 ([18]; Table 5, Day 9, read-out: Effect on Albumin Secretion, 50% Inhibitory Concentration (IC50)): 9300 nM | IC50 ([18]; Table 6, Day 2, read-out: Effect on Albumin Secretion, 50% Inhibitory Concentration (IC50)): > 30000 nM | IC50 ([18]; Table 6, Day 5, read-out: Effect on Albumin Secretion, 50% Inhibitory Concentration (IC50)): > 30000 nM | IC50 ([18]; Table 6, Day 7, read-out: Effect on Albumin Secretion, 50% Inhibitory Concentration (IC50)): > 30000 nM | IC50 ([18]; Table 6, Day 9, read-out: Effect on Albumin Secretion, 50% Inhibitory Concentration (IC50)): 12100 nM | IC50 ([18]; Table 6, Day 12, read-out: Effect on Albumin Secretion, 50% Inhibitory Concentration (IC50)): 6800 nM | IC50 ([18]; Table 6, Day 16, read-out: Effect on Albumin Secretion, 50% Inhibitory Concentration (IC50)): 2700 nM | IC50 ([18]; Table 6, Day 21, read-out: Effect on Albumin Secretion, 50% Inhibitory Concentration (IC50)): 2300 nM | cytotoxicity to human co-cultured hepatocytes (in words) ([18]; text b588): more cytotoxicity than AT-511

CNc1nc(N)nc2c1ncn2[C@@H]1OC(COP(=O)(N[C@@H](C)C(=O)OC(C)C)Oc2ccccc2)[C@@H](O)[C@@]1(C)F (mixture of isomers) [Compound 5, isopropyl ((((R,S)-(2R,3R,4R,5R)-5-(2-amino-6-(methylamino)-9H-purin-9-yl)-4-fluoro-3-hydroxy-4-methyltetrahydrofuran-2-yl)methoxy)-phenoxy-phosphoryl)-L-alaninate]
EC95 ([1]; Hepatitis C virus): 124 nM | EC50 ([1]; Hepatitis C virus): 26 nM | Fold increase in activity compared to parent nucleoside ([1]; Table 7): >600 | fold increase in activity (versus parent nucleoside) ([1]; listed as stabilized phosphate prodrug (phosphoramidate) of β-D-2′-deoxy-2′-α-fluoro-2′-β-): ≥ 870 | fold increase in activity (versus parent nucleoside) ([1]; listed as stabilized racemic phosphate prodrug (phosphoramidate) of β-D-2′-deoxy-2′-α-fluo): ≥ 600 | CC50 at 72 h [2]: > 100000 nM | EC50 [3]: 26 nM
